According to patent publication US12276670B2, “Methods for identifying and treating adrenomyeloneuropathy (AMN)” (The General Hospital Corporation, priority 2017, dated 2025):
“Also recorded” adds a separate entry of the source.

What was measured:
[1] = test system: neurons differentiated from ReN cells; experiment: PS exposure by Annexin V-FITC binding; type: cell-based, human; conditions: treatment for 3 days at 10 μM or 20 μM
Method: The most significant biochemical change caused by ABCD1 mutations is increased VLCFA levels including free fatty acid and LPC (in particular C24:0 and C26:0) in plasma and tissues. In order to determine whether neurons exposed to high VLCFA levels have PS exposure on their surfaces, neurons differentiated from ReN cells were treated with both C26:0 free fatty acid (FFA C26:0) and LPC C26:0 and then determined the PS exposure by Annexin V-FITC binding. Immortalized hNPC cell line ReNcell VM (ReN) was used to differentiate into neurons according to a published protocol (Kim et al., 2015). Simply, ReN cells were grown in proliferation medium (DMEM/F12 (Gibco/Life Technologies) with 2 μg/ml heparin (stock, STEMCELL Technologies), 2% B27 (Life Technologies), 20 ng/ml EGF, 20 ng/ml bFGF and 1% of 100× penicillin/streptomycin (Gibco/Life Technologies) until confluency. For differentiation, 3×10^4 cells were seeded on matrigel-coated (1:100 dilution in DMEM/F12) 8 well chamber slides and grown in differentiation medium (DMEM/F12 (Gibco/Life Technologies) with 2 μg/ml heparin (stock, STEMCELL Technologies), 2% B27 (Life Technologies) and 1% of 100× penicillin/streptomycin (Gibco/Life Technologies) for 2-3 weeks prior to co-culture with microglia.

[2] = test system: neurons differentiated from ReN cells; experiment: Cleaved-caspase and Tuj 1 staining after VLCFA treatment; type: cell-based, human; conditions: for cleaved-caspase staining (late apoptosis): differentiated ReN neurons after FFA C26:0 or LPC C26:0 treatment
MFGE8 [3] = experiment: MFGE8 gene expression in N9 microglia; type: cell-based; conditions: 30 uM, 3 days
Method: (§1) In order to learn whether microglial changes seen in vivo were primary or secondary to axon degeneration, microglia was isolated from postnatal mice and molecular changes in unstimulated conditions was assessed as well as after LPS challenge. Microglia cultures were prepared as previously described (Tamashiro et al., 2012). Briefly, mixed glial cultures (˜95% astrocytes, ˜5% microglia) were prepared from the brain tissue of 1-3 day old mice. The tissue was trypsinized with 0.05% trypsin, and the cells were resuspended in glia complete medium DMEM (Lonza) supplemented with 10% fetal bovine serum (FBS), 100 IU/ml penicillin, 100 μg/ml streptomycin and 2 mM L-Glutamine. After 10-14 days in culture, microglia were isolated from the mixed glial cultures by the shake-off procedure. Specifically, loosely attached microglia were obtained from an incubator shaker at 250 rpm for 2 h at 37° C., the cell-containing medium was centrifuged at 1100 rpm for 3 minutes to collect microglia for subsequent culture. N9 microglia cells were cultured in RPMI 1640 medium supplemented with 10% FBS.
After observing an unexpected increase of phagocytosis-related biomarkers at the tissue level, whether gene expression of these markers would be altered in vitro was examined. Total RNA from cells or tissues were isolated using Qiagen RNeasy Mini Kit (Qiagen). First-strand cDNA synthesis used 100 ng random primer (Life Technologies), […], 10 mM dNTP, and 200 units of reverse transcriptase (Life Technologies) per 20 μL reactions. PCRs were performed in duplicates in a 25 μl final volume by using SYBR Green master mix from Applied Biosystems (Life Technologies). The data was analyzed by calculating the delta Ct value between the tested gene and an internal control.
In order to examine whether VLCFA has any effect on MFGE8 expression, microglial cell lines (N9) were treated with 30 uM FFA C26:0, LPC C16:0 and LPC C26:0 separately for 3 days.

MFGE8 [4] = experiment: MFGE8 gene expression in primary isolated microglia; type: cell-based, mouse; conditions: primary microglia from WT and Abcd1−/− mice, 15 uM
Method: as §1
After observing an unexpected increase of phagocytosis-related biomarkers at the tissue level, whether gene expression of these markers would be altered in vitro was examined. […] The data was analyzed by calculating the delta Ct value between the tested gene and an internal control. […]

MFGE8 [5] = experiment: MFGE8 protein secretion in primary isolated microglia (ELISA); type: cell-based, mouse; conditions: primary microglia from WT and Abcd1−/− mice, 15 uM
Method: as §1
An ELISA assay detected 2-fold higher MFGE8 protein secretion into media by Abcd1−/− microglia (FIG. 4D, P<0.05; MFGE8 and TNFa level in culture medium and spinal cord homogenate were measured using MFGE8 and TNFa ELISA kit (R&D) according to manufacturer's instructions). […]

[6] = test system: differentiated ReN cells in the co-culture system with primary Abcd1−/− microglia; experiment: Co-culture of differentiated neurons with primary Abcd1−/− microglia; type: cell-based
Method: As a bridging protein, MFGE8 tightly binds to exposed phosphatidylserine on surface membranes of stressed neurons and opsonizes them for phagocytosis. Indeed, in co-culture, Abcd1−/− microglia increased phagocytosis of phosphatidylserine-exposing neurons in both unstimulated and LPS-challenged conditions (FIG. 4E). For the co-culture of microglia and neurons, isolated microglia were seeded on top of differentiated neurons and co-cultured for 4 days with or without supplementation of VLCFA. For VLCFA supplementation, hexacosanoic acid (FFA C26:0) and Lysophosphatidylcholine (LPC) C16:0 and C26:0 (Avanti polar lipid) were solubilized in 50 mg/ml Methyl-β-cyclodextrin to make 3 mM stock solution and then supplemented into culture medium to reach designated concentration with Methyl-β-cyclodextrin as vehicle control. […] Tuj-1 immunofluoresece and degenerated axons were quantified in each group.
The most significant biochemical change caused by ABCD1 mutations is increased VLCFA levels including free fatty acid and LPC (in particular C24:0 and C26:0) in plasma and tissues. In order to determine whether neurons exposed to high VLCFA levels have PS exposure on their surfaces, neurons differentiated from ReN cells were treated with both C26:0 free fatty acid (FFA C26:0) and LPC C26:0 and then determined the PS exposure by Annexin V-FITC binding. […]

[7] = test system: primary microglia from Abcd1−/− mice; experiment: Microglial phagocytosis assay (PS exposing SH-SY5Y neurons seeded on microglia); type: cell-based, mouse; conditions: primary Abcd1−/− microglia pretreated 12 hours; MFGE8 at 50 ng/ml; 4 hours co-culture
Method: To validate the impact of MFGE8, primary microglia from Abcd1−/− mice were pretreated with either MFGE8 (50 ng/ml) or MFGE8 antibody for 12 hours and then phagocytosis was assessed by performing a microglial phagocytosis assay. Microglia were seeded in 8-well chamber (7×10^4/well in complete medium) and cultured for 24 hours. SH-SY5Y cells were treated with 100 uM H2O2 for 12 hours to induce phosphatidylserine (PS) exposure on cell surface. Floating SH-Sy5Y cells were then collected by centrifuge at 1000 g for 3 minutes, resuspended in serum free medium and stained with 3 μM CMTPX (red)(Life Science Technologies)(1:1000 dilution) for 30 minutes. A portion of the floating cells was subjected to Annexin V-FITC staining to confirm the exposure of phosphatidylserine. The remnant was washed twice and seeded (same amount as microglia) on top of the microglial layer. After 4 hours co-culture, cells were washed with PBS and fixed with 4% paraformaldehyde (PFA) for 15 min at room temperature. Microglia were then stained with IBA1 antibody (Wako) overnight followed by Alexa Fluor-488 conjugated second antibody. For quantification, 5 random images were taken from each chamber well using a confocal microscope (Zeiss). The total number of phagocytosed particles as well as cell-sized particles was counted and divided by microglia cell number.

## CCCCCCCCCCCCCCCCCCCCCCCCCC(=O)O [FFA C26:0, hexacosanoic acid]
[1]
  PS exposure on cell surface (Annexin V-FITC): did not induce significant PS exposure
[2]
  cleaved-caspase staining (late apoptosis): did not reveal a notable positive signal
MFGE8 [3]
  MFGE8 mRNA expression: did not have an effect

## CCCCCCCCCCCCCCCC(=O)OC[C@@H](O)COP(=O)([O-])OCC[N+](C)(C)C [LPC C16:0, Lysophosphatidylcholine (LPC) C16:0]
MFGE8 [3]
  MFGE8 mRNA expression: did not have an effect

## CCCCCCCCCCCCCCCCCCCCCCCCCC(=O)OC[C@@H](O)COP(=O)([O-])OCC[N+](C)(C)C [LPC C26:0, Lysophosphatidylcholine (LPC) C26:0]
[1]
  PS exposure on cell surface (Annexin V-FITC): remarkable dose dependent PS exposure; also recorded: showed exposure of phosphatidylserine (PS)
[2]
  cleaved-caspase staining (late apoptosis): did not reveal a notable positive signal; also recorded: little late apoptosis
[2]; differentiated ReN neurons after LPC C26:0 treatment
  neuronal marker Tuj 1 morphology: did not show significant morphological changes
MFGE8 [3]
  MFGE8 mRNA expression: significantly increased
MFGE8 [4]
  MFGE8 expression at mRNA level: significant increases
MFGE8 [5]
  MFGE8 expression at protein level (secretion): significant increases
[6]; 15 uM LPC C26:0, co-culture 4 days
  decrease of Tuj 1 expression: 20%
[6]; co-culture system with LPC C26:0 supplementation, with or without MFGE8 antibody
  axon degeneration (quantification of degenerated axons): increased axon degeneration

B1: MFGE8: milk fat globule EGF factor 8 protein, supplemented to microglia at 50 ng/ml (protein, UniProt Q08431 24-387, looked up)
Lactadherin: LDICSKNPCHNGGLCEEISQEVRGDVFPSYTCTCLKGYAGNHCETKCVEPLGLENGNIANSQIAASSVRVTFLGLQHWVPELARLNRAGMVNAWTPSSNDDNPWIQVNLLRRMWVTGVVTQGASRLASHEYLKAFKVAYSLNGHEFDFIHDVNKKHKEFVGNWNKNAVHVNLFETPVEAQYVRLYPTSCHTACTLRFELLGCELNGCANPLGLKNNSIPDKQITASSSYKTWGLHLFSWNPSYARLDKQGNFNAWVAGSYGNDQWLQVDLGSSKEVTGIITQGARNFGSVQFVASYKVAYSNDSANWTEYQDPRTGSSKIFPGNWDNHSHKKNLFETPILARYVRILPVAWHNRIALRLELLGC
[7]
  microglial phagocytosis of PS exposing neurons: significant increase; also recorded: dramatically increased
